Reference: paper PMC8518114, “Safety, tolerability and pharmacokinetics of emodepside, a potential novel treatment for onchocerciasis (river blindness), in healthy male subjects” (British Journal of Clinical Pharmacology, 2021)
Read-outs that look alike come from different tables or passages of the source.

Assay: Plasma pharmacokinetics of emodepside, single ascending dose (SAD) and food effect study
Format: in vivo, human
Settings: for AUC 0–24 /D / C max /D: dose-normalised; for t ½ 0–24 (dominant half-life): terminal slope of log concentration–time (0–24 h) curve; for half-life: ln2/λz, read-out: Terminal t ½ (converted); for Tmax: median (range)
Experimental: Emodepside and placebo were supplied as a LSF and a standard immediate‐release (IR) tablet. The LSF was a 0.1% (w/v) solution containing 1 mg emodepside/mL. Conventional IR tablets containing emodepside in crystalline form were supplied in 2 dosage strengths, 5 and 20 mg, for the single ascending dose (SAD) study.
To preclude any dietary effects on the PK of emodepside, subjects in the fasting cohorts fasted for 9 hours before receiving the IP. Subjects in the fed cohort fasted for 10 hours prior to dosing and received a standard high‐calorie, high‐fat breakfast 30 minutes prior to dosing.
Blood samples (5 mL) were collected by venepuncture or via a cannula into EDTA tubes and immediately placed on ice. Samples were centrifuged at 1500 g for 10 minutes at 4°C. The plasma was aliquoted into 2 polypropylene tubes, which were stored at −20°C. Blood samples for PK analysis were taken at the following time points: • SAD: predose and 0.5, 1, 1.5, 2, 2.5, 3, 4, 5, 6, 8, 12, 24, 36, 48, 72, 96, 120, 144 and 168 hours, and 21 days postdose (cohort 1–9) or predose and 0.5, 1, 3, 6, 8, 12, 24, 36, 48, 72, 96, 120, 144 and 168 hours, and 10, 14, 18 and 21 days postdose (cohort 10). • Multiple ascending dose (MAD), as below: • on Day 1: predose and at 0.25, 0.5, 1, 1.5, 2, 2.5, 3, 4, 6, 8, 12 and 15 hours postdose • on Days 2–9: before the morning dose • on Day 10: before and at 0.25, 0.5, 1, 1.5, 2, 2.5, 3, 4, 6, 8, 12 and 15 hours • on Days 11, 12, 13, 14, 15, 18, 21, 24 and 30.
Emodepside plasma concentrations were determined by a validated high performance liquid chromatography–tandem mass spectrometry assay, using a Alltima C18 5 μm 150 mm x 2.1 mm column and an Applied Biosystems API4000 Turbo Ion Spray detector using positive ion mode. Analyst version 1.3.2 or 1.6.3 software, obtained from AB Sciex UK Ltd, Warrington, UK was used for chromatogram data analysis and quantitative calculations. Deuterated emodepside‐D16 was used as the internal standard. The lower limit of quantitation for emodepside in plasma was 1 ng/mL. Values below this limit were not used to calculate the PK parameters, except values that were below the limit of quantification before Cmax, which were set to zero.
The highest observed plasma concentration (Cmax) was determined directly from concentration–time data, as was the time to reach maximum plasma concentration (tmax). The area under the plasma concentration–time curve from time zero (predose) to the time of last quantifiable concentration (AUC0‐last) was calculated using the linear‐log trapezoidal rule. Elimination half‐life (t1/2) was calculated by the equation ln2/λz.
Statistical analyses were performed using SAS version 9.3 (Cary, NC, USA). Demographic data and baseline characteristics were listed and summarised. […] PK parameters were derived from plasma concentration vs. time data using a noncompartmental analysis in Phoenix WinNonlin version 7 (Certara Inc., Princeton, NJ, USA). Plasma concentration vs. time data and PK parameters were listed, and summarised by treatment, using descriptive statistics. Mean concentrations were calculated only if at least ⅔ of the individual concentrations were above the lower limit of quantification. […] Planned sampling times were used to summarise plasma‐concentration data; actual sampling times were used in the derivation of PK parameters.

[1] = SAD, single oral 1 mg LSF fasting, mean
[2] = SAD, single oral 2.5 mg LSF fasting, mean
[3] = SAD, single oral 5 mg IRT fasting, mean
[4] = SAD, single oral 5 mg LSF fasting, mean
[5] = SAD, single oral 10 mg LSF Fed, mean
[6] = SAD, single oral 10 mg LSF fasting, mean
[7] = SAD, single oral 20 mg IRT fasting, mean
[8] = SAD, single oral 20 mg LSF fasting, mean
[9] = SAD, single oral 40 mg LSF fasting, mean
[10] = human, in vivo, po, 1 mg, SAD, single oral 1 mg LSF fasting, plasma, HPLC-MS/MS, mean
[11] = human, in vivo, po, 2.5 mg, SAD, single oral 2.5 mg LSF fasting, plasma, HPLC-MS/MS, mean
[12] = human, in vivo, po, 5 mg, SAD, single oral 5 mg IRT fasting, plasma, HPLC-MS/MS, mean
[13] = human, in vivo, po, 5 mg, SAD, single oral 5 mg LSF fasting, plasma, HPLC-MS/MS, mean
[14] = human, in vivo, po, 10 mg, SAD, single oral 10 mg LSF Fed, plasma, HPLC-MS/MS, mean
[15] = human, in vivo, po, 10 mg, SAD, single oral 10 mg LSF fasting, plasma, HPLC-MS/MS, mean
[16] = human, in vivo, po, 20 mg, SAD, single oral 20 mg IRT fasting, plasma, HPLC-MS/MS, mean
[17] = human, in vivo, po, 20 mg, SAD, single oral 20 mg LSF fasting, plasma, HPLC-MS/MS, mean
[18] = human, in vivo, po, 40 mg, SAD, single oral 40 mg LSF fasting, plasma, HPLC-MS/MS, mean

CC(C)C[C@H]1C(=O)O[C@H](Cc2ccc(N3CCOCC3)cc2)C(=O)N(C)[C@@H](CC(C)C)C(=O)O[C@H](C)C(=O)N(C)[C@@H](CC(C)C)C(=O)O[C@H](Cc2ccc(N3CCOCC3)cc2)C(=O)N(C)[C@@H](CC(C)C)C(=O)O[C@H](C)C(=O)N1C [emodepside]
Plasma emodepside concentrations lower in the first 24 hours postdose, based on geometric mean Cmax (SAD, all dose levels and both formulations): approximately 90%
AUC0-last in fed relative to fasting conditions (SAD, single 10-mg dose of the LSF): not statistically different
AUC 0–24 /D [1]: 100 [h.ng/mL]/mg
C max /D [1]: 18.6 [ng/mL]/mg
t ½ 0–24 (dominant half-life) [1]: 8.45 h
AUC 0–24 /D [2]: 100 [h.ng/mL]/mg
C max /D [2]: 15.0 [ng/mL]/mg
t ½ 0–24 (dominant half-life) [2]: 10.6 h
AUC 0–24 /D [3]: 36.5 [h.ng/mL]/mg
C max /D [3]: 5.15 [ng/mL]/mg
AUC 0–24 (SAD, single oral 5 mg IRT fasting, plasma, HPLC-MS/MS, mean): 183 ng·h/mL
t ½ 0–24 (dominant half-life) [3]: 10.8 h
AUC 0–24 /D [4]: 104 [h.ng/mL]/mg
C max /D [4]: 18.4 [ng/mL]/mg
AUC 0–24 (SAD, single oral 5 mg LSF fasting, plasma, HPLC-MS/MS, mean): 522 ng·h/mL
t ½ 0–24 (dominant half-life) [4]: 11.6 h
AUC 0–24 /D [5]: 67.3 [h.ng/mL]/mg
C max /D [5]: 7.19 [ng/mL]/mg
t ½ 0–24 (dominant half-life) [5]: 11.1 h
AUC 0–24 /D [6]: 99.6 [h.ng/mL]/mg
C max /D [6]: 17.2 [ng/mL]/mg
t ½ 0–24 (dominant half-life) [6]: 10.9 h
AUC 0–24 /D [7]: 11.2 [h.ng/mL]/mg
C max /D [7]: 1.51 [ng/mL]/mg
AUC 0–24 (SAD, single oral 20 mg IRT fasting, plasma, HPLC-MS/MS, mean): 223 ng·h/mL
t ½ 0–24 (dominant half-life) [7]: 11.3 h
AUC 0–24 /D [8]: 95.3 [h.ng/mL]/mg
C max /D [8]: 15.3 [ng/mL]/mg
AUC 0–24 (SAD, single oral 20 mg LSF fasting, plasma, HPLC-MS/MS, mean): 1910 ng·h/mL
t ½ 0–24 (dominant half-life) [8]: 10.5 h
AUC 0–24 /D [9]: 103 [h.ng/mL]/mg
C max /D [9]: 14.9 [ng/mL]/mg
AUC last (SAD, single oral 40 mg LSF fasting, plasma, HPLC-MS/MS, mean): 16 400 h.ng/mL
Half-life during the first 24 hours after dosing (distribution phase) (healthy subjects, oral, across the 2 studies): around 11 hours
AUC 0–24 h [10]: 100 ng·h/mL
AUC(0-t) [10]: 182 ng·h/mL
Cmax [10]: 18.6 ng/mL
half-life (human, in vivo, po, 1 mg, SAD, single oral 1 mg LSF fasting, plasma, mean): 42.7 h
Tmax (human, in vivo, po, 1 mg, SAD, single oral 1 mg LSF fasting, plasma): 1 h
AUC 0–24 h [11]: 250 ng·h/mL
AUC(0-t) [11]: 845 ng·h/mL
Cmax [11]: 37.6 ng/mL
half-life (human, in vivo, po, 2.5 mg, SAD, single oral 2.5 mg LSF fasting, plasma, mean): 449 h
Tmax (human, in vivo, po, 2.5 mg, SAD, single oral 2.5 mg LSF fasting, plasma): 1 h
F rel (human, in vivo, po, 5 mg): 35%
AUC(0-t) [12]: 501 ng·h/mL
Cmax [12]: 25.7 ng/mL
half-life (human, in vivo, po, 5 mg, SAD, single oral 5 mg IRT fasting, plasma, mean): 267 h
Tmax (human, in vivo, po, 5 mg, SAD, single oral 5 mg IRT fasting, plasma): 2 h
AUC(0-t) [13]: 1700 ng·h/mL
Cmax [13]: 92.1 ng/mL
half-life (human, in vivo, po, 5 mg, SAD, single oral 5 mg LSF fasting, plasma, mean): 415 h
Tmax (human, in vivo, po, 5 mg, SAD, single oral 5 mg LSF fasting, plasma): 1 h
AUC 0–24 h [14]: 673 ng·h/mL
AUC(0-t) [14]: 3390 ng·h/mL
Cmax [14]: 71.9 ng/mL
half-life (human, in vivo, po, 10 mg, SAD, single oral 10 mg LSF Fed, plasma, mean): 531 h
Tmax (human, in vivo, po, 10 mg, SAD, single oral 10 mg LSF Fed, plasma): 2.5 h
AUC 0–24 h [15]: 996 ng·h/mL
AUC(0-t) [15]: 3070 ng·h/mL
Cmax [15]: 172 ng/mL
half-life (human, in vivo, po, 10 mg, SAD, single oral 10 mg LSF fasting, plasma, mean): 365 h
Tmax (human, in vivo, po, 10 mg, SAD, single oral 10 mg LSF fasting, plasma): 1 h
AUC(0-t) [16]: 667 ng·h/mL
Cmax [16]: 30.2 ng/mL
half-life (human, in vivo, po, 20 mg, SAD, single oral 20 mg IRT fasting, plasma, mean): 348 h
Tmax (human, in vivo, po, 20 mg, SAD, single oral 20 mg IRT fasting, plasma): 2 h
AUC(0-t) [17]: 7480 ng·h/mL
Cmax [17]: 306 ng/mL
half-life (human, in vivo, po, 20 mg, SAD, single oral 20 mg LSF fasting, plasma, mean): 590 h
Tmax (human, in vivo, po, 20 mg, SAD, single oral 20 mg LSF fasting, plasma): 1.5 h
AUC 0–24 h [18]: 4110 ng·h/mL
Cmax [18]: 595 ng/mL
half-life (human, in vivo, po, 40 mg, SAD, single oral 40 mg LSF fasting, plasma, mean): 392 h
Tmax (human, in vivo, po, 40 mg, SAD, single oral 40 mg LSF fasting, plasma): 1.05 h
Frel, relative bioavailability IR tablet vs. LSF (in vivo): 11.71%
